According to ChEMBL document CHEMBL3227967, “Quantitative structure-activity relationships in 1-aryl-2-(alkylamino)ethanol antimalarials” (J Med Chem, 1979):

tested on: Plasmodium berghei; assay: Antimalarial activity against Plasmodium berghei; format: functional

Point of comparison: `CCCCN(CCCC)CC(O)c1cc(-c2ccc(Cl)cc2)nc(-c2ccc(Cl)cc2)c1` (stereo not drawn), “log(1/C)” value 3.84. Against it:
- CCCCCCCN(CCCCCCC)CC(O)c1cccc2c1ccc1cc(Cl)c(Cl)cc12 (stereo not drawn) — lower, 2.55
- CCCCN(CCCC)CC(O)c1cc(Cl)c2nc(-c3ccccc3)ccc2c1 (stereo not drawn) — lower, 2.51
- CCCCN(CCCC)CC(O)c1cc(-c2ccc3c(c2)OCO3)nc2cc(Cl)ccc12 (stereo not drawn) — lower, 3.09
- OC(CN1CCCCC1)c1cc(-c2ccc(F)cc2)nc2cc(F)ccc12 (stereo not drawn) — lower, 2.45
- CCCCCCCN(CCCCCCC)CC(O)c1ccc(Cl)c2cc3cccc(Cl)c3cc12 (stereo not drawn) — lower, 3.56
- CCCCN(CCCC)CC(O)c1cccc2c1cc(Cl)c1ccccc12 (stereo not drawn) — lower, 2.26
- CCCCN(CCCC)CC(O)c1cc(-c2ccc(O)cc2)nc2c(Cl)cc(Cl)cc12 (stereo not drawn) — lower, 2.66
- CCCCN(CCCC)CC(O)c1cc(-c2ccc(F)cc2)nc2c(Cl)cc(Cl)cc12 (stereo not drawn) — within 0.2 log units, 3.98
- CCCCN(CCCC)CC(O)c1cc(C(=O)c2cccc(Cl)c2)nc2c(Cl)cc(Cl)cc12 (stereo not drawn) — higher, 4.48
- CCCCN(CCCC)CC(O)c1cc(-c2ccc(Cl)cc2)cc2ccc(OC)cc12 (stereo not drawn) — within 0.2 log units, 3.9
- CCCCN(CCCC)CC(O)c1cc(-c2ccc(Cl)cc2)nc2cc(Cl)c(OC)cc12 (stereo not drawn) — within 0.2 log units, 3.87
- CN(C)CC(O)c1cc2cc(C(F)(F)F)cc(C(F)(F)F)c2c2ccccc12 (stereo not drawn) — within 0.2 log units, 3.94
- CCCCN(CCCC)CC(O)c1cc(-c2c(Cl)cccc2Cl)nc2c(Cl)cc(Cl)cc12 (stereo not drawn) — lower, 2.41
- OC(CN1CCCCC1)c1cc(-c2ccc(Cl)cc2)nc2c(Cl)cc(Cl)cc12 (stereo not drawn) — lower, 3.49
- CCCCCCCN(CCCCCCC)CC(O)c1cc2cc(Cl)ccc2c2ccccc12 (stereo not drawn) — lower, 3.09
- CCCCCCNCC(O)c1cc(-c2ccc(C(F)(F)F)cc2)nc(-c2ccc(C(F)(F)F)cc2)c1 (stereo not drawn) — within 0.2 log units, 3.96
- CCCCCCCN(CCCCCCC)CC(O)c1cc2ccc(I)cc2c2cc(C(F)(F)F)ccc12 (stereo not drawn) — lower, 3.55
- CCCCNCC(O)c1cc(-c2cccc(C(F)(F)F)c2)nc(-c2cccc(C(F)(F)F)c2)c1 (stereo not drawn) — within 0.2 log units, 3.94
- CCCCCCCN(CCCCCCC)CC(O)c1cc2ccc(C(F)(F)F)cc2c2cc(Cl)sc12 (stereo not drawn) — lower, 3.38
- OC(CC1CCCCN1)c1cc2c(Cl)cc(Cl)cc2c2cc(Br)ccc12 (stereo not drawn) — within 0.2 log units, 3.81
- OC(CC1CCCCN1)c1cc2cc(C(F)(F)F)cc(C(F)(F)F)c2c2cc(Cl)c(Cl)cc12 (stereo not drawn) — higher, 4.47
- CCCCN(CCCC)CC(O)c1cc(-c2ccc(C(F)(F)F)cc2)nc(-c2ccc(Cl)c(Cl)c2)c1 (stereo not drawn) — lower, 3.16
- CCCCN(CCCC)CC(O)c1cc2c(Br)cccc2c2cc(Br)ccc12 (stereo not drawn) — lower, 2.9
- CCCCCCCN(CCCCCCC)CC(O)c1cccc2cc3ccccc3cc12 (stereo not drawn) — lower, 2.99
- Cc1ccc2nc(-c3ccccc3)cc(C(O)CC3CCCCN3)c2c1 (stereo not drawn) — lower, 2.47
- CCCCCCCN(CCCCCCC)CC(O)c1cc2ccc(F)cc2c2ccccc12 (stereo not drawn) — lower, 2.32
- CCCCN(CCCC)CC(O)c1c(Br)c2ccccc2c2cc(Br)ccc12 (stereo not drawn) — lower, 3.23
- CCCCN(CCCC)CCC(O)c1cc(-c2ccc(C(F)(F)F)cc2)nc(-c2ccc(C(F)(F)F)cc2)c1 (stereo not drawn) — higher, 4.57
- CCCCCCCN(CCCCCCC)CC(O)c1cc2c(Cl)cc(Cl)cc2c2cc(Cl)sc12 (stereo not drawn) — lower, 2.67
- OC(CC1CCCCN1)c1cc2cccc(C(F)(F)F)c2c2ccccc12 (stereo not drawn) — lower, 3.62
- CCCCN(CCCC)CC(O)c1cc(/C=C/c2ccc(C(F)(F)F)cc2)nc(/C=C/c2ccc(C(F)(F)F)cc2)c1 (stereo not drawn) — within 0.2 log units, 3.82
- CCCCN(CCCC)CC(O)c1cc2c(Cl)c(Cl)ccc2c2cc(Cl)c(Cl)cc12 (stereo not drawn) — lower, 3.34
- OC(CNC12CC3CC(CC(C3)C1)C2)c1cc(-c2ccccc2)nc2c(Cl)cc(Cl)cc12 (stereo not drawn) — lower, 2.36
- CCCCN(CCCC)CC(O)c1cccc2cc3ccccc3cc12 (stereo not drawn) — lower, 2.27
- CCCCCCCN(CCCCCCC)CC(O)c1cc2ccccc2c2cc(Br)ccc12.O=C(O)CCC(=O)O (stereo not drawn) — lower, 3.52
- OC(CC1CCCCN1)c1cc2ccc(C(F)(F)F)cc2c2cc(Cl)ccc12 (stereo not drawn) — higher, 4.25
- Cc1cc(C)c2cc(C(O)CC3CCCCN3)c3ccc(C(F)(F)F)cc3c2c1 (stereo not drawn) — lower, 3.25
